System: rabbit skeletal myofibrils (fast skeletal myofibrils)
Test: Activation of fast skeletal myofibrils (PUMA assay, PK/LDH-coupled ATPase at pCa25)
Format: biochemical
Procedure, shortened: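 ATPase activity of Triton-washed rabbit skeletal myofibrils, roughly 90% fast fibres, tracked by NADH loss at 340 nm through a PK/LDH-coupled ADP-regenerating system. Calcium set to 25% of maximal activity (pCa25), in PIPES 12 mM pH 6.8 with 2 mM MgCl2 and 1 mM DTT; AC1.4 reported.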

[1] = median AC1.4 class, procedure of Example 39
[2] = median AC1.4 reported as class, procedure of Example 39
[3] = AC1.4 determined according to the procedure of Example 39, reported as class symbols

Compound: NC(=O)c1nnc(-c2ccc(NCC3(c4ncccc4F)CCC3)nn2)s1 [5-[6-({[(3-fluoro-2-pyridyl)cyclobutyl]methyl}ami-no)pyridazin-3-yl]-1,3,4-thiadiazole-2-carboxamide]
- Mean AC1.4 [1]: B (B=1-10 uM)

Compound: NC(=O)c1ncc(-c2ccc(NCC3(c4ncccc4F)CCC3)nn2)s1 [5-[6-({[(3-fluoro-2-pyridyl)cyclobutyl]methyl}ami-no)pyridazin-3-yl]-1,3-thiazole-2-carboxamide]
- Mean AC1.4 [1]: B (B=1-10 uM)

Compound: O=c1[nH][nH]c2nc(-c3ccc(NCC4(c5ncccc5F)CCC4)nn3)sc12 [5-[6-({[(3-fluoro-2-pyridyl)cyclobutyl]methyl}ami-no)pyridazin-3-yl]-3-pyrazolino[3,4-d]1,3-thiazol-3-one]
- Mean AC1.4 [1]: D (D=>20 uM)

Compound: NC(=O)c1nnc(-c2ccc(NCC3(c4ncccc4F)CCC3)nn2)[nH]1 [5-[6-({[(3-fluoro-2-pyridyl)cyclobutyl]methyl}ami-no)pyridazin-3-yl]-4H-1,2,4-triazole-3-carboxamide]
- Mean AC1.4 [1]: C (C=10-20 uM)

Compound: O=c1cc(-c2ccc(NCC3(c4ncccc4F)CCC3)nn2)nc2cc[nH]n12 [5-[6-({[(3-fluoro-2-pyridyl)cyclobutyl]methyl}ami-no)pyridazin-3-yl]-8-hydro-3-pyrazolino[1,5-a]pyrimidin-7-one]
- Mean AC1.4 [2]: B (B=1-10 uM)

Compound: N#Cc1ccc(-c2ccc(NCC3(c4ncccc4F)CCC3)nn2)s1 [5-[6-({[(3-fluoro-2-pyridyl)cyclobutyl]methyl}ami-no)pyridazin-3-yl]thiophene-2-carbonitrile]
- Mean AC1.4 [1]: B (B=1-10 uM)

Compound: NC(=O)c1ccc(-c2ccc(NCC3(c4ncccc4F)CCC3)nn2)s1 [5-[6-({[(3-fluoro-2-pyridyl)cyclobutyl]methyl}ami-no)pyridazin-3-yl]thiophene-2-carboxamide]
- Mean AC1.4 [1]: A (A=<1 uM)

Compound: O=C(O)c1ccc(-c2ccc(NCC3(c4ncccc4F)CCC3)nn2)s1 [5-[6-({[(3-fluoro-2-pyridyl)cyclobutyl]methyl}ami-no)pyridazin-3-yl]thiophene-2-carboxylic acid]
- Mean AC1.4 [1]: B (B=1-10 uM)

Compound: N#Cc1cncc(-c2ccc(NCC3(c4ccc(F)cc4)CC3)nn2)c1 [5-[6-({[(4-fluorophenyl)cyclopropyl]meth-yl}amino)pyridazin-3-yl]pyridine-3-carbonitrile]
- Mean AC1.4 [3]: B (B=1-10 uM)

Compound: NC(=O)c1cncc(-c2ccc(NCC3(c4ccc(F)cc4)CC3)nn2)c1 [5-[6-({[(4-fluorophenyl)cyclopropyl]meth-yl}amino)pyridazin-3-yl]pyridine-3-carboxamide]
- Mean AC1.4 [3]: B (B=1-10 uM)

Compound: CC(=O)N1CCc2nc(-c3ccc(NCC4(c5ncccc5F)CCC4)nn3)sc2C1 [5-acetyl-2-[6-({[(3-fluoro(2-pyridyl))cyclobutyl]methyl}ami-no)pyridazin-3-yl]-4,5,6,7-tetrahydro-1,3-thiazolo[5,4-c]pyridine]
- Mean AC1.4 [2]: D (D=>20 uM)

Compound: NC(=O)c1cc(N)cc(-c2ccc(NC[C@]3(c4ncccc4F)C[C@H](F)C3)nn2)c1 [5-amino-3-[6-({[3-fluoro-1-(3-fluoro(2-pyridyl))cyclobutyl]methyl}ami-no)pyridazin-3-yl]benzamide]
- Mean AC1.4 [2]: B (B=1-10 uM)

Compound: N#Cc1cc(N)cc(-c2ccc(NC[C@]3(c4ncccc4F)C[C@H](F)C3)nn2)c1 [5-amino-3-[6-({[3-fluoro-1-(3-fluoro(2-pyridyl))cyclobutyl]methyl}ami-no)pyridazin-3-yl]benzenecarbonitrile]
- Mean AC1.4 [2]: A (A=<1 uM)

Compound: N#Cc1cc(Br)cc(-c2ccc(NCC3(c4ncccc4F)CCC3)nn2)c1O [5-bromo-3-[6-({[(3-fluoro(2-pyridyl))cyclobutyl]methyl}ami-no)pyridazin-3-yl]-2-hydroxybenzenecarbonitrile]
- Mean AC1.4 [2]: A (A=<1 uM)

Compound: NC(=O)c1cc(Cl)cc(-c2ccc(NC[C@]3(c4ncccc4F)C[C@H](F)C3)nn2)c1 [5-chloro-3-[6-({[3-fluoro-1-(3-fluoro(2-pyridyl))cyclobutyl]methyl}ami-no)pyridazin-3-yl]benzamide]
- Mean AC1.4 [2]: B (B=1-10 uM)

Compound: O=c1[nH]nc(-c2cnc(-c3ccc(NCC4(c5ncccc5F)CCC4)nn3)s2)o1 [5-{2-[6-({[(3-fluoro-2-pyridyl)cyclobutyl]methyl}ami-no)pyridazin-3-yl]-1,3-thiazol-5-yl}-1,3,4-oxadiazolin-2-one]
- Mean AC1.4 [1]: B (B=1-10 uM)

Compound: NC(=O)c1cn[nH]c1NC(=O)c1ccc(NCC2(c3ncccc3F)CCC2)nn1 [5-{[6-({[(3-fluoro-2-pyridyl)cyclobutyl]methyl}ami-no)pyridazin-3-yl]carbonylamino}pyrazole-4-carboxamide]
- Mean AC1.4 [2]: C (C=10-20 uM)

Compound: CC(C)(CNc1nnc(-c2cccc(C(N)=O)c2)cc1C(N)=O)c1ccc(F)cc1 [6-(3-carbamoylphenyl)-3-{[2-(4-fluorophenyl)-2-methylpropyl]amino}pyridazine-4-carboxamide]
- Mean AC1.4 [3]: B (B=1-10 uM)

Compound: CC(C)(Nc1ccc(-c2cn3c(C(N)=O)csc3n2)nn1)c1ncccc1Cl [6-(6-{[1-(3-chloro(2-pyridyl))-isopropyl]amino}pyridazin-3-yl)imidazo[2,1-b]1,3-thiazoline-3-carboxamide]
- Mean AC1.4 [2]: B (B=1-10 uM)

Compound: CC(C)(CNc1ccc(-c2ccc3[nH]c(=O)[nH]c(=O)c3c2)nn1)c1ccc(F)cc1 [6-(6-{[2-(4-fluorophenyl)-2-methylpropyl]amino}pyridazin-3-yl)-1,3-dihydroquinazoline-2,4-dione]
- Mean AC1.4 [3]: B (B=1-10 uM)

Compound: CC(C)(CNc1ccc(-c2ccc3[nH]c(=O)c(=O)[nH]c3c2)nn1)c1ccc(F)cc1 [6-(6-{[2-(4-fluorophenyl)-2-methylpropyl]amino}pyridazin-3-yl)-1,4-dihydroquinoxaline-2,3-dione]
- Mean AC1.4 [3]: A (A=<1 uM)

Compound: CC(C)(CNc1ccc(-c2ccc3c(c2)NC(=O)C3(C)C)nn1)c1ccc(F)cc1 [6-(6-{[2-(4-fluorophenyl)-2-methylpropyl]amino}pyridazin-3-yl)-3,3-dimethylindolin-2-one]
- Mean AC1.4 [3]: D (D=>20 uM)

Compound: CC(C)(CNc1ccc(-c2cccc(O)n2)nn1)c1ccc(F)cc1 [6-(6-{[2-(4-fluorophenyl)-2-methylpropyl]amino}pyridazin-3-yl)pyridin-2-ol]
- Mean AC1.4 [3]: B (B=1-10 uM)

Compound: CC(C)(CNc1ccc(-c2ccc(O)cn2)nn1)c1ccc(F)cc1 [6-(6-{[2-(4-fluorophenyl)-2-methylpropyl]amino}pyridazin-3-yl)pyridin-3-ol]
- Mean AC1.4 [3]: A (A=<1 uM)

Compound: CC(C)(CNc1ccc(-c2cccc(C(N)=O)n2)nn1)c1ccc(F)cc1 [6-(6-{[2-(4-fluorophenyl)-2-methylpropyl]amino}pyridazin-3-yl)pyridine-2-carboxamide]
- Mean AC1.4 [3]: B (B=1-10 uM)

Compound: CC(C)(CNc1ccc(-c2ccc(C(N)=O)cn2)nn1)c1ccc(F)cc1 [6-(6-{[2-(4-fluorophenyl)-2-methylpropyl]amino}pyridazin-3-yl)pyridine-3-carboxamide]
- Mean AC1.4 [3]: B (B=1-10 uM)

Compound: N#Cc1ccc(NCC2(c3ncccc3F)CCC2)nn1 [6-((1-(3-Fluoropyridin-2-yl)cyclobutyl)methylamino)pyridazine-3-carbonitrile]
- Mean AC1.4 [1]: D (D=>20 uM)

Compound: NC(=O)c1ccc(F)c(-c2ccc(NC3(c4cccc(C(N)=O)n4)CCC3)nn2)c1 [6-({[6-(3-carbamoyl-6-fluorophenyl)pyridazin-3-yl]amino}cyclobutyl)pyridine-2-carboxamide]
- Mean AC1.4 [1]: D (D=>20 uM)

Compound: NC(=O)c1ccc(NCC2(c3ncccc3F)CCC2)nn1 [6-({[(3-fluoro-2-pyridyl)cyclobutyl]methyl}ami-no)pyridazine-3-carboxamide]
- Mean AC1.4 [2]: D (D=>20 uM)

Compound: O=C(O)c1ccc(NCC2(c3ncccc3F)CCC2)nn1 [6-({[(3-fluoro-2-pyridyl)cyclobutyl]methyl}ami-no)pyridazine-3-carboxylic acid]
- Mean AC1.4 [2]: D (D=>20 uM)

Compound: Oc1cccc(C2(CNc3ccc(-c4ccc5[nH]ncc5c4)nn3)CCC2)n1 [6-({[(6-(1H-indazol-5-yl)pyridazin-3-yl)amino]methyl}cyclobutyl) pyridin-2-ol]
- Mean AC1.4 [3]: D (D=>20 uM)

Compound: Oc1cccc(C2(CNc3ccc(-c4ccc5cn[nH]c5c4)nn3)CCC2)n1 [6-({[(6-(1H-indazol-6-yl)pyridazin-3-yl)amino]methyl}cyclobutyl) pyridin-2-ol]
- Mean AC1.4 [3]: D (D=>20 uM)

Compound: NC(=O)c1csc2nc(-c3ccc(NC[C@]4(c5ncccc5F)C[C@H](F)C4)nn3)cn12 [6-[6-({[3-fluoro-1-(3-fluoro(2-pyridyl))cyclobutyl]methyl}ami-no)pyridazin-3-yl]imidazo[2,1-b]1,3-thiazoline-3-carboxamide]
- Mean AC1.4 [1]: A (A=<1 uM)

Compound: O=C1NCc2ccc(-c3ccc(NC[C@]4(c5ncccc5F)C[C@H](F)C4)nn3)cc21 [6-[6-({[3-fluoro-1-(3-fluoro(2-pyridyl))cyclobutyl]methyl}ami-no)pyridazin-3-yl]isoindolin-1-one]
- Mean AC1.4 [2]: B (B=1-10 uM)

Compound: NC(=O)c1csc2nc(-c3ccc(NCC4(c5ncccc5F)CCC4)nn3)cn12 [6-[6-({[(3-fluoro-2-pyridyl)cyclobutyl]methyl}ami-no)pyridazin-3-yl]imidazo[2,1-b]1,3-thiazoline-3-carboxamide]
- Mean AC1.4 [1]: A (A=<1 uM)

Compound: O=C(O)c1csc2nc(-c3ccc(NCC4(c5ncccc5F)CCC4)nn3)cn12 [6-[6-({[(3-fluoro-2-pyridyl)cyclobutyl]methyl}ami-no)pyridazin-3-yl]imidazo[2,1-b]1,3-thiazoline-3-carboxylic acid]
- Mean AC1.4 [1]: A (A=<1 uM)

Compound: N#Cc1cncc(-c2ccc(NCC3(c4ncccc4F)CCC3)nn2)n1 [6-[6-({[(3-fluoro-2-pyridyl)cyclobutyl]methyl}ami-no)pyridazin-3-yl]pyrazine-2-carbonitrile]
- Mean AC1.4 [1]: B (B=1-10 uM)

Compound: NC(=O)c1cncc(-c2ccc(NCC3(c4ncccc4F)CCC3)nn2)n1 [6-[6-({[(3-fluoro-2-pyridyl)cyclobutyl]methyl}ami-no)pyridazin-3-yl]pyrazine-2-carboxamide]
- Mean AC1.4 [1]: C (C=10-20 uM)
